We go through one compound from US10765654B2, “Methods and compounds for treating cancer” (University of Vermont and State Agricultural College, priority 2011, dated 2020).

Experiment [1] has as its system OG33 oligodendroglioma stem cells. In words: Growth dynamics, unbiased trypan blue exclusion based cytometry. It counts as cell-based, human. The settings on record: 0.25% GTA, 5 days of treatment. The protocol: (§1) Growth dynamics were assessed using unbiased trypan blue exclusion based cytometry. Cells were plated (at 10,000 cells per well of a 24-well plate) directly in the absence or presence of 0.25% GTA. After 1, 3, and 5 days of treatment, cells were typsinized, collected via centrifugation, and counted according to the manufacturer's instructions (Countess Automated Cell Counter; Invitrogen Life Technologies; Carlsbad, Calif.).

Experiment [2] deals with OG35 oligodendroglioma stem cells. The experiment is described as above. It counts as cell-based, human. The settings on record: 0.25% GTA, 5 days of treatment. As for the experimental part:
as §1

The test system of another experiment is GBM8 GSCs. In words: Cell cycle profile of GBM-derived GSC spheres (flow cytometry). The note with it: 0.25% GTA in SCM for 24 hrs. It counts as cell-based, human. As for the experimental part:
(§2) Cell cycle profiles were visualized by propidium iodide (PI) staining as previously described (Perez-Martinez & Jaworski (2005) J Neurosci 25:4917-29). OG35, OG33 and mouse neural stem cells were grown in stem cell medium (SCM; DMEM/F12, B27, 20 ng/ml ea bFGF & EGF) while the oligodendrocyte progenitor cell line, Oli-neu (Jung et al. (1995) Eur J Neurosci 7:1245-65) was grown in Sato's medium (DMEM supplemented with 100 μg/ml apotransferrin, 5 μg/ml insulin, 60 nM triiodothyronine, 30 nM sodium selenite, 100 μM putrescine, 1% horse serum, and 25 μg/ml G418). […] after 0.25% (v/v) GTA treatment, cells were trypsinized, recovered by centrifugation, re-suspended (10^6 cells/ml) in a low-salt PI solution ([…] polyethylene glycol PEG 8000, […], 180 U/ml RNase A, 0.1% Triton X-100, and 4 mM sodium citrate), and incubated at 37° C. for 20 minutes. After addition of an equal volume of high-salt PI solution ([…] polyethylene glycol PEG 8000, […], 180 U/ml RNase A, 0.1% Triton X-100, and 400 mM NaCl) and incubation at 4° C. for 1 hour, cell cycle profiles were recorded by flow cytometry (BD LSR 11 Flow Cytometer, BD Biosciences; Franklin Lakes, N.J.).
(§3) Flow cytometry was performed 24 hours after GTA treatment as described in prior examples herein.

The subject of the next experiment is GBM12 GSCs. Described as above. It counts as cell-based, human. The settings on record: 0.25% GTA in SCM for 24 hours; all GSCs except GBM8. As for the experimental part: as §2, §3
The test system of experiment [3] is OG35 oligodendroglioma GSCs. Description: Orthotopic graft in athymic mice, survival and bioluminescent imaging. It counts as in vivo. The settings on record: OG35 engrafted mice. The protocol:
Cells (2,500 cells in 4 μl) were injected into the right striatum (1 mm anterior, 1.5 mm lateral to bregma, 3.5 mm deep) of adult athymic mice (8-week-old, 25-28 g). […]
For in vivo imaging, mice were injected i.p. with 150 mg/kg D-luciferin potassium salt 5 minutes prior to imaging under 1.5% inhaled isoflurane. Peak efflux was determined from an average of 15 bioluminescent acquisitions, with 1 min inter-acquisition intervals, using the auto-exposure setting. Total photon efflux was determined by drawing regions of interest over the emitted region and setting thresholds for each mouse to maximize the number of pixels encircled using Living Image acquisition and analysis software (Version 3.0.3.5, Caliper Life Sciences, Hopkinton, Mass.). […]
Tumor bioluminescence (rate of flux change over time) and tumor volume were compared using a Mann-Whitney test. Survival was analyzed using Kaplan-Meier curves [Kaplan, EL and P Meier. (1958) J Am Stat Assoc 53:457-481] and comparisons between groups were analyzed with a log-rank test [Peto, R and J Peto. […]

Experiment [4] relates to OG33 oligodendroglioma stem cells. Description: Cell cycle profile by propidium iodide staining and flow cytometry. It counts as cell-based, human. The note with it: 0.25% GTA in SCM for 24 hours; OG33. The protocol: as §2
In experiment [5] the test system is OG35 oligodendroglioma stem cells. The description is as above. It counts as cell-based, human. The settings on record: 0.25% GTA in SCM for 24 hours; OG35. The protocol: as §2

Molecules are shown by their SMILES.

For `CC(=O)OCC(COC(C)=O)OC(C)=O` [GTA, glyceryltriacetate], the Cell number result in experiment [1] and in experiment [2] was “significantly decreased cell number” in each case. In addition, the Growth arrest result with GBM8 GSCs is on record as “did not induce growth arrest”. Moreover, the “Growth arrest (increased proportion of cells in G0/G1 and decreased proportion in S phase)” value in the experiment with GBM12 GSCs is given as “exerted growth arrest”. The Survival entry in experiment [3] (GTA alone 5.8 g/kg intragastrically daily) is “did not significantly increase survival”. The “Time to tumor regrowth after termination of TMZ treatment” value in experiment [3] (GTA with TMZ, bioluminescent imaging) is listed as “significantly delayed”. In addition, the Cell cycle arrest entry in experiment [4] and in experiment [5] was “induced cell cycle arrest” in each case.
